Entries after “also recorded” stand apart in the source; their conditions may differ.
Tests used:
[1] = tested on: patient with CRPS1 / erythromelalgia (EM); experiment: Case study patient #1 (CRPS1/EM): pain and symptom response; assay type: in vivo, human
Text: A magnesium treatment regimen was then investigated.
When the infusions were postponed, small doses of the MgSO4 solution was mixed with water and ingested orally.

[2] = tested on: patients with erythromelalgia (EM); experiment: Tolerability of oral magnesium products in patients (diarrhea, adverse effects, achievable dose)
Text: (§1) Thirteen patients took nonprescription magnesium oxide ([…]) or magnesium-protein (Mg-protein) products in gradually escalating and divided doses totaling 0.6-5 grams/day elemental magnesium under their physicians' supervision.
(§2) Although magnesium's potential benefits for many disorders have been described, patients' lack of tolerance to traditional therapeutic doses has precluded widespread utilization. Indeed, some patients have difficulty tolerating the RDA of magnesium. […] All doses were divided and taken at 4-6 hour intervals with copious amounts of water. All patients had normal renal function, which is required for undertaking magnesium therapy.

[3] = tested on: patients with erythromelalgia (EM); experiment: High-dose oral magnesium therapy in erythromelalgia patients: pain and symptom response; assay type: in vivo, human; conditions: for worsening of EM: one patient
Text: as §1
Specifically, it is most important that the magnesium compound (sulfate, oxide, carbonate, etc.) be either very finely divided or dissolved. […] Ideally, dosing should begin at RDA levels and increased as tolerance increases, until pain and/or symptom reduction is achieved. This level can then be maintained longterm. This pain reduction and long term dosing can begin as low as 600 mg elemental Mg/day and may be increased until gastrointestinal distress resulting from administration is consistent. This may occur at a dosage as high as 5 g/day elemental magnesium or even higher. Preferably, at least 1 gm magnesium/day should be administered, more preferably 1.2 gm, more preferably 1.5 gm, still more preferably 2 gm Mg/day. Still more preferably 2.5 gm Mg/day, and most preferably at least 3 gm Mg/day should be administered. To reduce the likelihood of gastrointestinal distress, daily dosages should be divided into several smaller administrations of not more than 500 mg elemental magnesium, preferably not more than 250 mg, and more preferably not more than […] Magnesium per dose. These can be administered several times daily to achieve the correct total daily dose. Small doses taken every 1-2 hours can be used, as can slightly larger doses taken every 4-6 hours. The frequency and size of doses is not as important as the total daily dose, provided the patient can tolerate the regimen.
as §2

subjects = conditions: 250 mg two times daily, oral, one study; cited from earlier work

SMILES: O=S(=O)([O-])[O-].[Mg+2] [MgSO4, magnesium sulfate]
- serum magnesium measurements (patient #1, also two hours after ingesting two grams of MgSO4): normal
- repeated chemistries and urine studies (patient #1, up to 12 grams/day orally): normal
- pain and symptom response [1]: Pain was completely eliminated; also recorded: nearly total remission from EM
- adverse effects ([2]; patient #1): only occasional, mild adverse effects (loose stools, blurred vision)
- daily dose reached ([2]; patient #1, 50% MgSO4 solution mixed with water, oral, increased very gradually): 12 grams MgSO4/day

SMILES: COc1ccc([C@@H]2Sc3ccccc3N(CCN(C)C)C(=O)[C@@H]2OC(C)=O)cc1 [diltiazem]
- pain and symptom response [1]: greater, but still limited, benefit
- worsening of EM [3]: worsening

SMILES: [O]=[Mg] [magnesium oxide]
- dose reached ([2]; one patient unable to tolerate 2 grams of magnesium tablets, blended in water): 4.5 grams/day
- pain and function response ([3]; person with CIPD and severe EM, escalating doses to 4-5 grams/day): significantly less pain and improved function
- pain and flaring response ([3]; person with EM, escalating doses to 4-5 grams/day, within two weeks): marked reduction in pain and flaring

SMILES: [Mg+2] [magnesium]
- adverse effects in subjects (subjects): 45.7%
- patients who improved ([3]; 4 of the 6 patients who reached doses above 1 gram/day (1.2 to 7 grams/day)): 67%
- patients who obtained benefit ([3]; 6 of 8 who reached therapeutic levels, with the two already known cases): 75%
- patients who obtained substantial pain reduction and improvement in other symptoms ([3]; escalating divided doses totaling 0.6-5 grams/day elemental magnesium, 13 refractory patients): eight of these thirteen
- worsening of EM [3]: worsened
- effectiveness and tolerability compared with nifedipine and/or diltiazem ([3]; patients who had previously received nifedipine and/or diltiazem): more effective and better tolerated
- patients who reported improvement ([3]; six of 11 EM patients, after 2 months): 55%

Source: patent US6835398B2, “Method of administering high-dose, oral magnesium for treatment of chronic pain syndrome of erythromelalgia” (priority 2001, dated 2004)
